Where two headings read alike, the source gives them in different places.
Columns and labels:
[1] = test system: RAF dimers in HCT-116 cells; test: HCT-116 AlphaLISA SureFire pERK1/2 cellular assay (dimer); assay type: cell-based; conditions: Homo sapiens, HCT-116, 1 hr
Outline: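 HCT-116 (KRAS G13D) cells, 30,000/well, pretreated 1 h with 1 μM Encorafenib to induce RAF dimers, washed, then dosed 1 h at 37° C with compound (10-point, top 10 μM, 1/2 log steps) in growth medium. pERK1/2 (T202/Y204) measured by AlphaLISA SureFire; absolute IC50 versus DMSO control.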

[2] = test system: constitutive ERK phosphorylation in WiDr cells; test: WiDr AlphaLISA SureFire pERK1/2 cellular assay; assay type: cell-based, human; conditions: WiDr cells, 2 hr; for IC50: Homo sapiens, read-out: pERK WiDr (2 hr) Abs pIC50 (converted)
Method: The human HCT-116 colorectal carcinoma cell line (ATCC CCL-247) endogenously expresses the KRAS^G13D mutation, which leads to constitutive activation of the MAP kinase pathway and phosphorylation of ERK. […] Assay read outs took place 2 or 24 hours after dosing with compounds. On the first day, HCT-116 cells were harvested, resuspended in growth medium (McCoys5A with Glutamax (Life Technologies 36600021) and 10% heat-inactivated fetal bovine serum (Sigma F9665)), and counted. Cells were plated in 100 μl per well in each well of a 96-well culture dish (Sigma CLS3598) to a final density of 30,000 (2 hr read) or 15,000 (24 hr read) cells per well and incubated over night at 37° C. and 5% CO2. On day 2, the growth medium was exchanged for dosing medium (McCoys5A with Glutamax (Life Technologies 36600021) and 1% heat-inactivated fetal bovine serum (Sigma F9665)) and the cells were dosed with compounds to produce a 10-point dose response, where the top concentration was 1 μM and subsequent concentrations were at 1/3 log dilution intervals. A matched DMSO control was included. The cells were subsequently incubated for either 2 or 24 hours at 37° C. and 5% CO2. After incubation, media was removed and the cells were incubated with lysis buffer containing phosphatase inhibitors for 15 minutes at room temperature. Cell lysates were transferred to a 12 area 96 well white Optiplate™ (Perkin Elmer 6005569) and incubated with anti-mouse IgG acceptor beads, a biotinylated anti-ERK1/2 rabbit antibody recognizing both phosphorylated and non-phosphorylated ERK1/2, a mouse antibody targeted to the Thr202/Tyr204 epitope and recognizing phosphorylated ERK proteins only, and streptavidin-coated donor beads. The biotinylated antibody binds to the streptavidin-coated donor beads and the phopsho-ERK1/2 antibody binds to the acceptor beads. Plates were read on an EnVision reader (Perkin Elmer) and excitation of the beads at 680 nm with a laser induced the release of singlet oxygen molecules from the donor beads that trigger energy transfer to the acceptor beads in close proximity, producing a signal that can be measured at […]. Both antibodies bound to phosphorylated ERK proteins, bringing the donor and acceptor beads into close proximity. All data were analyzed using the Dotmatics or GraphPad Prism software packages. Inhibition of ERK phosphorylation was assessed by determination of the absolute IC50 value, which is defined as the concentration of compound required to decrease the level of phosphorylated ERK proteins by 50% when compared to DMSO control.
WiDr AlphaLISA SureFire pERK1/2 Cellular Assay
The human WiDr colorectal adenocarcinoma cell line (ATCC CCL-218) endogenously expresses the BRAF^V600E mutation, which leads to constitutive activation of the MAP kinase pathway and phosphorylation of ERK. […] The main procedure is essentially the same as for HCT-116 cells (above), with the following adjustments to the growth medium (Eagle's Minimum Essential Medium (Sigma M2279) with 1× Glutamax (Life Technologies 35050038), 1× Sodium-Pyruvate (Sigma S8636), and 10% heat-inactivated fetal bovine serum (Sigma F9665)), the dosing medium (Eagle's Minimum Essential Medium (Sigma M2279) with 1× Glutamax (Life Technologies 35050038), 1× Sodium-Pyruvate (Sigma S8636), and 1% heat-inactivated fetal bovine serum (Sigma F9665)), and the seeding densities (2 hr: 50,000 cells per well; 24 hr: 35,000 cells per well). Moreover, the compounds were dosed in 1/2 log dilution intervals with the top concentration of 10 μM.

[3] = Microsomal stability assay, mouse liver microsomes (MLM); assay type: in vitro ADME; conditions: 0.5 mg/mL protein, 1 μM substrate
Outline: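 Substrate depletion: 1 μM compound incubated at 37° C. with cryopreserved mouse or human liver microsomes at 0.5 mg·mL^−1 protein. Timed aliquots quenched in ice-cold organic solvent and measured by LC-MS/MS; t1/2 and CLint derived from the slope of ln % remaining versus time.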

[4] = HCT116 cells, dimer, read-out: pERK HCT116 dimer (1 hr) plC50 (converted)
[5] = HCT116 cells pre-dosed with 1 μM Encorafenib, read-out: pERK HCT116 dimer (1 hr) pIC50 (converted)

Row | SMILES | IC50 [1, 4] [nM] | IC50 ([2]; Abs) [nM] | microsomal CLint at 1 μM ([3]; 37° C.) [µL/min/mg] | further results
1 | O=C(CN1CC[C@@H](O)C1)Nc1cc(Oc2ccc3c(c2)CC(c2nc(-c4ccccc4)c[nH]2)CO3)ccn1 (stereo partly drawn) [Compound 145] | 178 | 331 | 147 | 
2 | O=C1CCc2c(Oc3ccc4c(c3)CC(c3nc5cc(C(F)(F)F)ccc5[nH]3)CO4)ccnc2N1 (stereo not drawn) [Compound 22, 5-[3-[6-(trifluoromethyl)-1H-benzimidazol-2-yl]chroman-6-yl]oxy-3,4-dihydro-1H-1,8-naphthyridin-2-one] |  |  |  | IC50 [1, 5]: 155 nM; IC50 ([2]; absolute IC50): 120 nM; microsomal CLint at 1 μM [3]: 25.1 µL/min/mg
3 | Cc1cc(-c2c[nH]c(C3COc4ccc(Oc5ccnc6c5CCC(=O)N6)cc4C3)n2)n(C(C)C)n1 (stereo not drawn) [Compound 112, 5-[3-[4-(2-isopropyl-5-methyl-pyrazol-3-yl)-1H-imidazol-2-yl]chroman-6-yl]oxy-3,4-dihydro-1H-1,8-naphthyridin-2-one] | 257 | 1000 | 55.5 | 
4 | O=C1CCc2c(Oc3ccc4c(c3)CC(c3nc(-c5ccc(C(F)(F)F)nc5)c[nH]3)CO4)ccnc2N1 (stereo not drawn) [Compound 127, 5-[3-[4-[6-(trifluoromethyl)-3-pyridyl]-1H-imidazol-2-yl]chroman-6-yl]oxy-3,4-dihydro-1H-1,8-naphthyridin-2-one] | 158 |  | 13.4 | 
5 | COc1csc(-c2c[nH]c(C3COc4ccc(Oc5ccnc6c5CCC(=O)N6)cc4C3)n2)c1 (stereo not drawn) [Compound 122, 5-[3-[5-(4-methoxy-2-thienyl)-1H-imidazol-2-yl]chroman-6-yl]oxy-3,4-dihydro-1H-1,8-naphthyridin-2-one] | 162 | 355 | 70.8 | 
6 | O=C(CN1CC(O)C1)Nc1cc(Oc2ccc3c(c2)CC(c2nc(-c4ccccc4)c[nH]2)CO3)ccn1 (stereo not drawn) [Compound 153] | 126 | 288 | 92.9 | 
7 | CCc1cc(-c2c[nH]c(C3COc4ccc(Oc5ccnc6c5CCC(=O)N6)cc4C3)n2)ccn1 (stereo not drawn) [Compound 118, 5-[3-[4-(2-ethyl-4-pyridyl)-1H-imidazol-2-yl]chroman-6-yl]oxy-3,4-dihydro-1H-1,8-naphthyridin-2-one] | 148 | 398 | 40 | 
8 | O=C1CCc2c(Oc3ccc4c(c3)CC(c3nc(-c5ccnc(C(F)(F)F)c5)c[nH]3)CO4)ccnc2N1 (stereo not drawn) [Compound 8, 5-[3-[4-[2-(trifluoromethyl)-4-pyridyl]-1H-imidazol-2-yl]chroman-6-yl]oxy-3,4-dihydro-1H-1,8-naphthyridin-2-one] | 269 |  |  | IC50 [1, 5]: 269 nM; IC50 ([2]; absolute IC50): 178 nM; pERK WiDr (2 hr) Abs pIC50 ([2]; Abs): 6.75; microsomal CLint at 1 μM [3]: 13.9 µL/min/mg
9 | CCc1cc(-c2c[nH]c(C3COc4ccc(Oc5ccnc6c5CCC(=O)N6)cc4C3)n2)n(C)n1 (stereo not drawn) [Compound 111] | 107 | 324 | 26.9 | 
10 | O=C1CCc2c(Oc3ccc4c(c3)CC(c3nc(-c5ccnc(C(F)F)c5)c[nH]3)CO4)ccnc2N1 (stereo not drawn) [Compound 101, 5-[3-[4-[2-(difluoromethyl)-4-pyridyl]-1H-imidazol-2-yl]chroman-6-yl]oxy-3,4-dihydro-1H-1,8-naphthyridin-2-one] | 63.1 | 182 | 15.2 | 
11 | CN1CCC(C(=O)Nc2cc(Oc3ccc4c(c3)CC(c3nc(-c5ccccc5)c[nH]3)CO4)ccn2)CC1 (stereo not drawn) [Compound 147, 1-methyl-N-[4-[3-(4-phenyl-1H-imidazol-2-yl)chroman-6-yl]oxy-2-pyridyl]piperidine-4-carboxamide] | 437 | 871 | 102 | 
12 | COc1cc(-c2c[nH]c(C3COc4ccc(Oc5ccnc6c5CCC(=O)N6)cc4C3)n2)ccn1 (stereo not drawn) [Compound 104] | 347 |  |  | pERK WiDr (2 hr) Abs pIC50 ([2]; Abs): 5.96; MLM (CLint) ([3]; 37° C.): 23 µL/min/mg
13 | CCn1nc(C)cc1-c1c[nH]c(C2COc3ccc(Oc4ccnc5c4CCC(=O)N5)cc3C2)n1 (stereo not drawn) [Compound 124, 5-[3-[4-(2-ethyl-5-methyl-pyrazol-3-yl)-1H-imidazol-2-yl]chroman-6-yl]oxy-3,4-dihydro-1H-1,8-naphthyridin-2-one] | 269 | 661 | 28.2 | 
14 | CCc1cc(-c2c[nH]c(C3COc4ccc(Oc5ccnc6c5CCC(=O)N6)cc4C3)n2)n(C2CC2)n1 (stereo not drawn) [Compound 113, 5-[3-[4-(2-cyclopropyl-5-ethyl-pyrazol-3-yl)-1H-imidazol-2-yl]chroman-6-yl]oxy-3,4-dihydro-1H-1,8-naphthyridin-2-one] | 513 | 1480 | 38.2 | 
15 | O=C1CCc2c(Oc3ccc4c(c3)CN(C(=O)Nc3cccc(C(F)(F)F)c3)CC4)ccnc2N1 [Compound 50] |  |  |  | IC50 [1, 5]: 64.6 nM; IC50 ([2]; absolute IC50): 97.7 nM; microsomal CLint at 1 μM [3]: 79 µL/min/mg
16 | O=C(Nc1cc(Oc2ccc3c(c2)CC(c2nc(-c4ccc(F)cc4)c[nH]2)CO3)ccn1)C1CC1 (stereo not drawn) [Compound 155, N-[4-[3-[4-(4-fluorophenyl)-1H-imidazol-2-yl]chroman-6-yl]oxy-2-pyridyl]cyclopropanecarboxamide] | 72.4 | 102 |  | MLM (CLint) ([3]; 37° C.): 277 µL/min/mg
17 | O=C(Nc1cc(Oc2ccc3c(c2)CC(c2nc(-c4ccccc4)c[nH]2)CO3)ccn1)C1CC1(F)F (stereo not drawn) [Compound 137, 2,2-difluoro-N-[4-[3-(4-phenyl-1H-imidazol-2-yl)chroman-6-yl]oxy-2-pyridyl]cyclopropanecarboxamide] | 28.2 | 74.1 |  | MLM (CLint) ([3]; 37° C.): 277 µL/min/mg
18 | Cn1nc(C2CC2)cc1-c1c[nH]c(C2COc3ccc(Oc4ccnc5c4CCC(=O)N5)cc3C2)n1 (stereo not drawn) [Compound 125, 5-[3-[4-(5-cyclopropyl-2-methyl-pyrazol-3-yl)-1H-imidazol-2-yl]chroman-6-yl]oxy-3,4-dihydro-1H-1,8-naphthyridin-2-one] | 138 | 977 |  | 
19 | O=C1CCc2c(Oc3ccc4c(c3)CC(c3nc(-c5cccnc5C(F)(F)F)c[nH]3)CO4)ccnc2N1 (stereo not drawn) [Compound 128, 5-[3-[4-[2-(trifluoromethyl)-3-pyridyl]-1H-imidazol-2-yl]chroman-6-yl]oxy-3,4-dihydro-1H-1,8-naphthyridin-2-one] | 263 |  |  | 
20 | O=C(Nc1cc(Oc2ccc3c(c2)CC(c2nc(-c4ccccc4)c[nH]2)CO3)ccn1)C1CC(F)(F)C1 (stereo not drawn) [Compound 139] | 219 |  |  | MLM (CLint) ([3]; 37° C.): 277 µL/min/mg
21 | O=C(Nc1cc(Oc2ccc3c(c2)CC(c2nc(-c4ccccc4)c[nH]2)CO3)ccn1)C1(F)CC1 (stereo not drawn) [Compound 138] | 813 |  |  | MLM (CLint) ([3]; 37° C.): 277 µL/min/mg
22 | CC(C)CCc1c[nH]c(C2COc3ccc(Oc4ccnc5c4CCC(=O)N5)cc3C2)n1 (stereo not drawn) [Compound 116] | 87.1 | 39.8 |  | 
23 | CC(C)(C)CCc1c[nH]c(C2COc3ccc(Oc4ccnc5c4CCC(=O)N5)cc3C2)n1 (stereo not drawn) [Compound 115, 5-[3-[4-(3,3-dimethylbutyl)-1H-imidazol-2-yl]chroman-6-yl]oxy-3,4-dihydro-1H-1,8-naphthyridin-2-one] | 105 | 8.13 |  | 

From US12304912B2, “Fused bicyclic RAF inhibitors and methods for use thereof” (Jazz Pharmaceuticals Ireland Limited, priority 2020, dated 2025)
